Our source for the TGI and GI50 values is PubChem BioAssay (NCI).

Where “and” joins values, the source holds several entries; their conditions need not be identical. Identical values can stand only once.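 Test compounds were applied to cells in 96-well plates for 48 hours at 5 doses. GI50 marks 50% less growth. The concentration for full growth arrest is given as TGI.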

Among the test systems are NCI-H522 lung; SK-MEL-2 melanoma; SK-OV-3 ovarian; RXF 393 renal; A549 NSCLC; ACHN renal; UACC-62 melanoma; SF-539 CNS; MALME-3M melanoma; 786-0 renal.
Common to all, as to assay: growth of human tumour cells (NCI), 48 h

For the molecule `CC(C(=O)n1nnc2ccccc21)N(c1ccccc1)c1ccccc1` (stereo not given), the TGI in the test on NCI-H522 lung, in the test with SK-MEL-2 melanoma, with SK-OV-3 ovarian, in the test on RXF 393 renal, in the test on A549 NSCLC and in the test on ACHN renal was over 100 µM in each case. Besides, the TGI in the test with UACC-62 melanoma, with SF-539 CNS, in the test with MALME-3M melanoma and in the test on 786-0 renal was over 100 µM each time.
Regarding `OC(CN1CC1)C(O)CN1CC1` (stereo not given), the GI50 in the test with NCI-H522 lung, in the test on SK-MEL-2 melanoma, in the test with RXF 393 renal, in the test with A549 NSCLC, in the test on ACHN renal and in the test on UACC-62 melanoma was over 50 µg/mL in each case. The GI50 in the test with MALME-3M melanoma and with 786-0 renal was over 50 µg/mL in each case. For the same molecule, the TGI with NCI-H522 lung, in the test with SK-MEL-2 melanoma, in the test with RXF 393 renal, in the test on A549 NSCLC, with ACHN renal and with UACC-62 melanoma was over 50 µg/mL in each case. The TGI with MALME-3M melanoma and with 786-0 renal was over 50 µg/mL in each case.
With `OB1OCc2cc(/C=C/c3cccc(C(F)(F)F)c3)ccc21`, the GI50 with NCI-H522 lung is 0.991 µM; in the test on SK-MEL-2 melanoma it was 46.1 µM; in the test with SK-OV-3 ovarian, 2.9 µM; in the test with RXF 393 renal, 2.23 µM; with A549 NSCLC it was 0.695 µM; in the test with ACHN renal it was 0.332 µM. Also, the GI50 in the test with UACC-62 melanoma is 0.551 µM; in the test on SF-539 CNS it was 0.405 µM; in the test with MALME-3M melanoma it was 7.65 µM; with 786-0 renal, 0.365 µM. Besides, the TGI in the test on NCI-H522 lung is 87.9 µM; in the test with SK-MEL-2 melanoma it was over 100 µM; with SK-OV-3 ovarian, 63.5 µM; in the test with RXF 393 renal, 11.4 µM; in the test with A549 NSCLC, 19.6 µM; in the test on ACHN renal, 1.34 µM. In addition, the TGI was determined as 63.4 µM in the test on UACC-62 melanoma, 11.1 µM with SF-539 CNS, 54.3 µM in the test with MALME-3M melanoma and 10.1 µM with 786-0 renal.
`CCC1=C[C@@H]2CN(C1)Cc1c([nH]c3ccccc13)[C@@](C(=O)OC)(c1cc3c(cc1OC)N(C)[C@H]1[C@@](O)(C(=O)OC)[C@H](OC(C)=O)[C@]4(CC)[C@@H]5C[C@@H]5CN5CC[C@]31[C@@H]54)C2`: the GI50 with NCI-H522 lung is under 0.005 µM; in the test on SK-MEL-2 melanoma, under 0.005 µM; with SK-OV-3 ovarian, under 0.005 µM; with RXF 393 renal, 0.0105 µM; in the test on A549 NSCLC it was under 0.005 µM; in the test with ACHN renal it was 0.0191 µM and 0.168 µM. In addition, the GI50 in the test on UACC-62 melanoma was under 0.005 µM; in the test on SF-539 CNS, 0.0342 µM; in the test on MALME-3M melanoma, under 0.005 µM; with 786-0 renal, < 0.005 µM and 0.0139 µM. For the same molecule, the TGI was under 0.005 µM with NCI-H522 lung; 2.07 µM in the test on SK-MEL-2 melanoma; 11.1 µM with RXF 393 renal; 5.95 µM and 12.2 µM in the test on A549 NSCLC; 7.79 µM and 26.2 µM in the test on ACHN renal; 6.39 µM and 16.9 µM with UACC-62 melanoma. Further, the TGI in the test with SF-539 CNS is 2.91 µM; with MALME-3M melanoma, 1.29 µM; in the test with 786-0 renal it was 1.58 µM and 14.2 µM.
`Cc1cc(N(CCC#N)CCC#N)ccc1/C=C1N=C(/C=C/c2ccccc2)OC(=O)N\1`: the TGI in the test on NCI-H522 lung, with SK-MEL-2 melanoma, in the test on SK-OV-3 ovarian, with RXF 393 renal, with A549 NSCLC and in the test with ACHN renal was over 100 µM in each case. For the same molecule, the TGI in the test on UACC-62 melanoma, in the test with SF-539 CNS, in the test with MALME-3M melanoma and with 786-0 renal was over 100 µM each time.
In the case of `O=C1C(Cl)=C(Nc2ccccc2)C(=O)c2ccccc21`, the GI50 with NCI-H522 lung is 1.66 µM; in the test on SK-MEL-2 melanoma, 1.87 µM; in the test with SK-OV-3 ovarian, 5.43 µM; with RXF 393 renal, 1.6 µM; with A549 NSCLC, 15.5 µM; in the test on ACHN renal, 1.63 µM. For the same molecule, the GI50 is 1.72 µM in the test with UACC-62 melanoma, 5.41 µM in the test on SF-539 CNS, 1.92 µM with MALME-3M melanoma and 6.57 µM in the test with 786-0 renal. In addition, the TGI came to 3.77 µM in the test with NCI-H522 lung; 3.69 µM in the test with SK-MEL-2 melanoma; 18.7 µM in the test with SK-OV-3 ovarian; 2.99 µM with RXF 393 renal; 42.2 µM in the test with A549 NSCLC; 3.13 µM in the test with ACHN renal. The TGI in the test on UACC-62 melanoma turned out to be 3.3 µM; in the test with SF-539 CNS, 17.5 µM; in the test on MALME-3M melanoma, 3.72 µM; with 786-0 renal it was 19.6 µM.
Regarding `CC(=O)OCC1OC(n2cc([N+](=O)[O-])c(=O)[nH]c2=O)C(OC(C)=O)C(OC(C)=O)C1OC(C)=O` (stereo not given), the TGI in the test on NCI-H522 lung, in the test on SK-MEL-2 melanoma, with SK-OV-3 ovarian, in the test with RXF 393 renal, in the test with A549 NSCLC and with ACHN renal was over 100 µM each time. Further, the TGI with UACC-62 melanoma, with MALME-3M melanoma and in the test with 786-0 renal was over 100 µM in each case.
With `Cc1cc2c(Br)cc(Br)c(O)c2nc1C(=O)c1ccccc1`, the TGI was over 100 µM in the test with NCI-H522 lung; 97.2 µM in the test on SK-MEL-2 melanoma; over 83.6 µM with RXF 393 renal; over 100 µM in the test with A549 NSCLC; over 100 µM with ACHN renal; 15.3 µM with UACC-62 melanoma. In addition, the TGI is 97 µM in the test on SF-539 CNS, over 76.9 µM in the test with MALME-3M melanoma and 28.6 µM in the test on 786-0 renal.
For the molecule `O=C1C=C(O)c2[nH]c(=O)ccc2C1=O`, the TGI in the test on NCI-H522 lung, in the test with SK-OV-3 ovarian, in the test on RXF 393 renal, in the test with A549 NSCLC, in the test on ACHN renal and in the test on UACC-62 melanoma was over 100 µM each time. In addition, the TGI in the test on SF-539 CNS, with MALME-3M melanoma and in the test on 786-0 renal was over 100 µM in each case.
Consider `CNC(SC)=C1C(=O)OC(C)(C)OC1=O`, for which the TGI in the test with NCI-H522 lung, in the test on SK-MEL-2 melanoma, in the test with SK-OV-3 ovarian, with RXF 393 renal, in the test with A549 NSCLC and in the test with ACHN renal was over 100 µM each time. The TGI with UACC-62 melanoma, in the test with MALME-3M melanoma and with 786-0 renal was over 100 µM each time.
Regarding `Cc1ccc2c(c1)Sc1ccc(N=NN(C)C)cc1N2C`, the TGI in the test on NCI-H522 lung, with SK-MEL-2 melanoma, with SK-OV-3 ovarian, in the test with RXF 393 renal, in the test on A549 NSCLC and in the test with ACHN renal was over 100 µM in each case. Moreover, the TGI in the test with UACC-62 melanoma, in the test with MALME-3M melanoma and in the test on 786-0 renal was over 100 µM throughout.
Consider `CC1(C)CC[C@H](C2=CC(=O)c3c(O)ccc(O)c3C2=O)O1`, for which the GI50 in the test with NCI-H522 lung was 0.55 µM and 0.0942 µM; with SK-MEL-2 melanoma, 4.34 µM and 1.3 µM and 0.682 µM; in the test with SK-OV-3 ovarian, 4.81 µM; in the test with RXF 393 renal it was 1.39 µM and 2.02 µM and 0.271 µM; in the test with A549 NSCLC, 9.2 µM and 3.48 µM and 3.31 µM; in the test with ACHN renal, 1.64 µM and 1.27 µM and 0.252 µM. Besides, the GI50 in the test on UACC-62 melanoma is 2.36 µM and 1.3 µM and 0.54 µM; with MALME-3M melanoma, 1.15 µM and 1.26 µM and 0.201 µM; with 786-0 renal, 0.829 µM and 1.28 µM and 0.237 µM. Moreover, the TGI is 1.23 µM and 0.248 µM in the test on NCI-H522 lung; 8.47 µM and 2.67 µM and 1.56 µM with SK-MEL-2 melanoma; 18.8 µM and 13.7 µM with SK-OV-3 ovarian; 2.93 µM and 3.82 µM and 0.604 µM with RXF 393 renal; 30 µM and 10 µM in the test on A549 NSCLC; 3.45 µM and 2.55 µM and 0.69 µM in the test with ACHN renal. Besides, the TGI in the test on UACC-62 melanoma was 5.28 µM and 2.66 µM and 1.53 µM; with MALME-3M melanoma it was 2.76 µM and 2.53 µM and 0.471 µM; in the test with 786-0 renal it was 2.07 µM and 2.8 µM and 0.504 µM.
Take `Cn1c([N+](=O)[O-])cnc1/C=C1\Oc2cc(Cl)ccc2C1=O`: the GI50 in the test on NCI-H522 lung is 0.679 µM; in the test with SK-MEL-2 melanoma, 0.436 µM; in the test with SK-OV-3 ovarian, 1.94 µM; in the test on RXF 393 renal, 0.762 µM; in the test on A549 NSCLC, 1.7 µM; in the test with ACHN renal it was 0.209 µM. Also, the figures for the GI50 with SF-539 CNS, in the test on MALME-3M melanoma and with 786-0 renal were 1.71 µM, 0.837 µM and 1.08 µM, respectively. The TGI in the test with NCI-H522 lung was 2.36 µM; in the test on SK-MEL-2 melanoma, 2 µM; in the test on SK-OV-3 ovarian it was over 22.8 µM; in the test on RXF 393 renal, 2.37 µM; in the test on A549 NSCLC, 7.06 µM; with SF-539 CNS, 4.81 µM. Further, the TGI in the test on MALME-3M melanoma was 4.13 µM; in the test on 786-0 renal, 4.75 µM.
As for `COC1OC(C)C(OCc2ccccc2)C(OS(=O)(=O)c2ccc(C)cc2)C1OS(=O)(=O)c1ccc(C)cc1` (stereo not given), the TGI in the test with NCI-H522 lung, in the test with SK-MEL-2 melanoma, in the test on SK-OV-3 ovarian, in the test on RXF 393 renal, in the test with A549 NSCLC and in the test on ACHN renal was over 100 µM throughout. The TGI in the test with SF-539 CNS, in the test with MALME-3M melanoma and with 786-0 renal was over 100 µM throughout.
In the case of `COc1cccc(/C=C2\CCC(C)(CN(C)C)C2=O)c1` (stereo not given), the TGI with NCI-H522 lung is 91.6 µM; in the test with SK-MEL-2 melanoma it was over 100 µM; in the test with RXF 393 renal, over 100 µM; in the test on A549 NSCLC, over 100 µM; in the test on ACHN renal, over 100 µM; with UACC-62 melanoma it was over 100 µM. In addition, the TGI with SF-539 CNS, in the test with MALME-3M melanoma and in the test with 786-0 renal was over 100 µM throughout.
For the molecule `COc1ccccc1/C=C/C(=O)/C=C/c1ccccc1O`, the GI50 in the test with NCI-H522 lung is 0.95 µM; with SK-OV-3 ovarian, 2.05 µM; with A549 NSCLC, 1.27 µM; with ACHN renal, 1.36 µM; in the test on UACC-62 melanoma, 1.16 µM; in the test with SF-539 CNS it was 1.46 µM. For the same molecule, the results for the GI50 in the test on MALME-3M melanoma and with 786-0 renal were 1.82 µM and 1.6 µM, respectively. For the same molecule, the TGI in the test with NCI-H522 lung turned out to be 2.21 µM; in the test with SK-OV-3 ovarian, 5.6 µM; in the test with RXF 393 renal, 0.763 µM; in the test on A549 NSCLC it was 3.73 µM; in the test with ACHN renal, 2.66 µM; in the test with UACC-62 melanoma it was 2.55 µM. Also, the figures for the TGI in the test with SF-539 CNS, with MALME-3M melanoma and in the test on 786-0 renal were 2.78 µM, 5.98 µM and 3.41 µM, respectively.
